According to patent US20250222028A1, “ENGINEERED IMMUNE CELL PLATFORM” (Cancer Research Technology Limited, priority 2022, published 2025):

Experiments:
P815 target cells = assay: VITAL cytotoxicity assay, human CD8+ CTLs with P815 target cells; type: cell-based; details: 10 μM, pre-incubation 40-50 mins, vs carrier control
Experimental: FIG. 3. L-type Cav channel agonists increase expression of GLI1 and enhance specific cell killing by human CD8+ CTLs. Naïve human CD8+ T cells were purified from the buffy coat layer of blood isolated from healthy donors, and were stimulated using ImmunoCult™ CD3/CD28/CD2 human T-Cell Activator and again restimulated at day 10 for 3 days. (A) Human CTLs were restimulated on day 15-20 for 24 h with plate-bound anti-CD3 in the presence of 10 μM of FPL64176 or carrier control before RNA was extracted for qRT-PCR analysis. n=1 healthy donor. TBP is used as a reference gene. (B) Updated graph of (A) showing n=3 independent experiments/healthy donors. Gli1 expression is normalised to carrier. (C) Between day 16 and 24, CD8+ T cells were co-cultured with P815 target cells at indicated effector to target ratios and subjected to a VITAL cytotoxicity assay in the presence of 10 μM FPL64176 (squares) or carrier control (circles). (D) Same data as (C) represented differently. […] Error bars indicate SD. p values were calculated using an unpaired two-tailed Student's t test (B) or a two-way ANOVA (C/D). * indicates p<0.05, ** indicates p<0.01, **** indicates p<0.0001.
A VITAL assay was subsequently performed to assess the role of L-type Cav agonists with regards to specific tumour cell killing by human CD8+ CTLs. […]

K562 target cells = assay: LDH killing assay, NK-92 cells with K562 target cells; type: cell-based, human; details: 10 μM, vs carrier control
Experimental: FIG. 5. L-type Cav channel agonists increase GLI1 expression in the human NK cell line NK-92 and promote specific tumour cell killing. (A) NK-92 cells were stimulated using an anti-NKp46 mAb for 4 hours in the presence of 10 μM FPL 64176, and GLI1 expression was assessed using qRT-PCR. Data is n=4 independent experiments. (B) NK-92 cells were stimulated using an anti-NKp46 mAb for 4 hours in the presence of 100 μM Bay K8644, and GLI1 expression was assessed using qRT-PCR. Data is n=3 independent experiments. […]
FIG. 7. […] Killing of K562 tumour cells was assessed after 24 h by LDH killing assay. […]
In order to establish whether an increase in GLI1 expression is correlated with an increase in NK-92 cell effector function, NK-92 were co-cultured with K562 myelogenous leukaemia cells in the presence of 10 μM FPL 64176 or carrier control, at the effector:target ratios indicated in FIG. 5C. Cell killing was assessed using the LDH assay, as previously described.
To determine if the increased specific cell killing seen in Gorlin patients can be achieved by engineering cells to express a gain-of-function mutation resulting in increased Gli1 signalling, NK-92 cells were engineered to stably express the I756T GOF mutation in Cav1.4. […] Killing of K562 tumour cells was assessed after 24 h by LDH killing assay. […]

MC38-Ova tumour = assay: Adoptive transfer of agonist-treated OTI T cells into MC38-Ova tumour bearing Rag2 KO mice, Cleaved Caspase 3 immunohistochemistry; type: in vivo; details: T cells re-stimulated in vitro with agonist before transfer; tumours excised 24 hours after transfer
Experimental: FIG. 13. […] Cytotoxic OTI T cells were re-stimulated in vitro in the presence of FPL 64176 or carrier control before adoptive transfer into MC38-Ova tumour bearing Rag2 KO mice via tail vein injection. 24 hours after the adoptive transfer, tumours were excised and analysed by immunohistochemistry for Cleaved Caspase 3 (A). 3 mice per condition, % CC3 over whole tumour area from all mice. (B) Repeat experiment with 3-4 mice per condition. Each data point represents the average CC3 staining of 3 separate tumour sections. Overall CC3 staining (top panel) and weak, moderate, and strong CC3 staining (bottom row), respectively, are shown.
As described above, the present invention may find use in adoptive transfer. To investigate the applicability of Cav channel agonist treatment in an adoptive transfer treatment regime, cytotoxic OTI T cells were re-stimulated in vitro in the presence of FPL 64176 or carrier control before adoptive transfer into MC38-Ova tumour bearing Rag2 KO mice via tail vein injection. 24 hours after the adoptive transfer, tumours were excised and analysed by immunohistochemistry for Cleaved Caspase 3. FIGS. 13A&B indicate that treatment of tumour-specific T cells with a Cav channel agonist prior to adoptive transfer leads to increased tumour cell killing compared to adoptive transfer with T cells that have not been treated with a Cav channel agonist.

[1] = test system: L-type voltage gated Ca^2+ channel; assay: Calcium flux after TCR crosslinking in murine CD8+ CTLs; type: cell-based
Excerpt: FIG. 14. […] Murine CD8^+ CTLs were loaded with Calcium Sensor Dye eFluor™ 514, anti-CD3ε antibodies and calcium channel inhibitors/agonist. Other Calcium channels expressed in CD8 T cells were inhibited: “Block”=BTP2 inhibits CRAC channels downstream of the TCR, and BCTC inhibits TRPV channels. […] T cell receptor (TCR) crosslinking was induced 30 s after the start of sample acquisition by adding antibodies to crosslink the TCR. Arrows indicate the initiation of the calcium flux following TCR crosslinking. The line indicates the baseline fluorescence of the Calcium Sensor Dye eFluor™ 514. Data shown is representative of two independent experiments.

## COC(=O)c1c(C)[nH]c(C)c1C(=O)c1ccccc1Cc1ccccc1 [FPL 64176]
P815 target cells
  improvement of cell killing: ~70%
K562 target cells
  target cell killing by NK-92 cells: enhanced
MC38-Ova tumour
  tumour cell death in vivo (Cleaved Caspase 3 staining): increased tumour cell death
[1]
  initiation of Ca^2+ flux following TCR crosslinking: accelerates
[1]; CRAC and TRPV channels blocked with BTP2 and BCTC
  Cav-mediated Ca^2+ flux: specifically increases
